Results on three compounds are retold here after article PMC12596933 (Chembiochem, 2025).

The target in experiment [1] is T1, FKP (bacterial L-fucokinase/GDP-fucose pyrophosphorylase) (Bacteroides fragilis, UniProt Q58T34).
T1 sequence (Q58T34 1-949): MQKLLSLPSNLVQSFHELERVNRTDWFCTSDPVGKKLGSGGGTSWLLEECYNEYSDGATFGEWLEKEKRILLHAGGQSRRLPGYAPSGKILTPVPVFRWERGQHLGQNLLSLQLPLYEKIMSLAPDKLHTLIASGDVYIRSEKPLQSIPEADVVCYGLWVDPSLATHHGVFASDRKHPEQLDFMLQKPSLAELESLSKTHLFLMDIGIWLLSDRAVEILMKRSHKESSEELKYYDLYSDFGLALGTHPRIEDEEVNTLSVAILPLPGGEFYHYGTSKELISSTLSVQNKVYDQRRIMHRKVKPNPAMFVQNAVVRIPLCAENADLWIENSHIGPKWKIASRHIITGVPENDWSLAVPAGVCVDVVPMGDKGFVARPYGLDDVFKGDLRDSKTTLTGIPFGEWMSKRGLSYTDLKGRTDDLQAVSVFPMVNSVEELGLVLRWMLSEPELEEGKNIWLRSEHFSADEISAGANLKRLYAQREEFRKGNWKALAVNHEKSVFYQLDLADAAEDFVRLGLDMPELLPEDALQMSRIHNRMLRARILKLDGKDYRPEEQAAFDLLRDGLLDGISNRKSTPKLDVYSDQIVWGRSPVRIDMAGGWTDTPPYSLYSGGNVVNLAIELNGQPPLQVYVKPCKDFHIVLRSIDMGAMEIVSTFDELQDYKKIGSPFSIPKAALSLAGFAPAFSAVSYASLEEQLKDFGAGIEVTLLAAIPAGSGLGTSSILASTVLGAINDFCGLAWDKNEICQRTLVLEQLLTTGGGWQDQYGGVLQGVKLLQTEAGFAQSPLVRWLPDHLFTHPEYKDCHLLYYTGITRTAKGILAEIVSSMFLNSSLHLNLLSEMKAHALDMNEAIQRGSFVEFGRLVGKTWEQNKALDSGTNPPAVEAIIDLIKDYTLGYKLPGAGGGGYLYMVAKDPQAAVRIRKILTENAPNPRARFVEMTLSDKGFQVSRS
In words: Enzymatic conversion by FKP into the sugar nucleotide. In kind it is biochemical.

The next experiment deals with HL-60 cells. In words: Cell surface fucosylation, flow cytometry with lectin AAL staining. Conditions: 4 to 500 μM, 3 days, normalized to DMSO as 100%. In kind it is cell-based. Background: In flow cytometry, cells or beads pass a laser one at a time.
The next experiment concerns FUT6. Conditions: read-out: Km as donor for FUT6; cited from earlier work.
A further experiment concerns FUT8. The following applies: read-out: Km as donor for FUT8; cited from earlier work.

Turning to `[N-]=[N+]=NC[C@@H]1OC(O)[C@@H](F)[C@H](O)[C@@H]1O` (stereo partly shown) [6‐N3‐2‐F‐Fuc], the “conversion by FKP into the corresponding sugar nucleotide product” value in experiment [1] is recorded as “unable to catalyze the conversion”.

With `CC(=O)O[C@@H]1O[C@@H](C)[C@@H](OC(C)=O)[C@@H](OC(C)=O)[C@@H]1OC(C)=O` [Ac‐fucose], the “effect on cell surface fucosylation” value in the experiment on HL-60 cells was “enhanced fucosylation”.

In the case of `Nc1nc2c(ncn2C2OC(COP(=O)(O)OP(=O)(O)OC3OC(CNC(=O)Cc4ccc5ccccc5c4)C(O)C(O)C3O)C(O)C2O)c(=O)[nH]1` (stereo not shown) [6‐deoxy‐6‐N‐(2‐naphthylacetyl)‐GDP‐fucose], the Km in the experiment on FUT6 was 0.94 µM; in the experiment with FUT8, 175 µM.

What is called Km is the concentration of substrate that gives half-maximal velocity.
